From article PMC12088962, “Design, synthesis, and biological investigation of new thiazole-based derivatives as multi-targeted inhibitors endowed with antiproliferative, antioxidant, and antibacterial properties” (Frontiers in Chemistry, 2025)
In brackets after ≈: the same amount, converted by molar mass.

Columns and labels:
in vitro = details: human, MCF-10A mammary gland epithelial cells (normal cell line)
E. coli DNA gyrase = E. coli DNA gyrase (Escherichia coli, UniProt P0AES6); assay: DNA gyrase supercoiling assay; type: biochemical; details: for remaining activity at 1 µM: read-out: RA (residual activity of the enzyme), E. Coli DNA gyrase
Experimental: 4.2.3. Determination of Inhibitory Activities on E. coli DNA Gyrase.
All the final compounds were tested for E. coli DNA gyrase inhibitory activity in a supercoiling assay. Activities were determined on streptavidin -coated 96-well microtiter plates from Thermo scientific Pierce. First, the plates were rehydrated with buffer (20 mM Tris -HCl with pH 7.6, 0.01% […]
immobilized. After washing off the unbound oligonucleotide, the enzyme test was performed. The reaction volume of 30 μL in buffer (35 mM Tris-HCl with pH 7.5, 4 mM MgCl 2, 24 mM KCl, 2 […]
1.5 U of DNA gyrase from E. coli or S. aureus, 0.75 μg of relaxed pNO1 plasmid, and 3 μL solution of the inhibitor in 1 0% DMSO and 0.008% Tween 20. Reaction solutions were incubated at 37 °C […]
for 30 min. After that, the TF buffer (50 mM NaOAc with pH 5.0, 50 mM NaCl and 50 mM MgCl2) was added to terminate the enzymatic reaction. After additional incubation for 30 min at rt, during which biotin-oligonucleotide-plasmid triplex was formed, the unbound plasmid was washed off using TF buffer and SybrGOLD in T10 buffer (10 mM Tris HCl wit h pH 8.0 and 1 mM EDTA) was added. The fluorescence was measured with a microplate reader (BioTek Synergy H4, excitation: 485 nm, emission: 535 nm). […]
tested compounds. GraphPad Prism software was used to calculate the IC50 values. The result is given as the average value of three independent measurements. […]

[1] = test system: four cancer cell lines (A-549, MCF-7, Panc-1, HT-29); assay: Antiproliferative MTT assay, average over four cancer cell lines; details: for GI50: Homo sapiens, read-out: Antiproliferative activity, Average (GI50)
Description: (§8) Dose-response assays determined the IC50 values for the novel compounds. We derived the reported data from a minimum of two separate experiments, each consisting of three repetitions per concentration.
Assay for antiproliferative effect

MCF-7 cells = assay: Antiproliferative MTT assay; details: Homo sapiens, MCF7, read-out: Antiproliferative activity IC50 ± SEM, MCF-7
Description: as §8
Assay for antiproliferative effect

VEGFR-2 = VEGFR-2 (Homo sapiens, UniProt P35968); assay: VEGFR-2 inhibitory assay
Experimental: The outcomes are presented as IC50 values.
(§9) was added to each well followed by incubation of 1h and then washing of the plates using buffer.
(§10) The enhancement solution was added to each well and the signal was recorded at excitation and
(§11) The autophosphorylation percentage inhibition by compounds was calculated using the following equation:
Prepare all the solutions using autoclaved, deionized water and analytical grade reagents.
and store all the reagents at room temperature (unless indicated otherwise).
solution, add 5 mL ultra-pure water; 1×Kinase Assay Buffer: add 25 mL HEPES solution (1 M),
water, adjust pH to 7.5 and constant volume to 500 mL using ultrapure water; 4×Stop solution (40
mM): Mix 0.8 mL of the foregoing EDTA solution, 1 mL 10×Detection Buffer and 8.2 mL ultra-
pure water; 1×Detection Buffer: Mix 1 mL 10×Detection Buffer with 9 mL water; 4×VEGFR
μM) was added to 624 μL 1×Kinase Assay Buffer and mixed; 4×ULight™-labeled JAK1
(substrate) (200 nM, 25 times diluted): 24 μL ULight™-labeled JAK1 (mother liquor
concentration 5 μM) was added to 576 μL 1×Kinase Assay Buffer and mixed; 4×ATP Solution
(40 μM, 250 times diluted): add 3 μL ATP solution (10 mM) to 747 μL 1×Kinase Assay Buffer
2×substrate/ATP Mix: 560 μL foregoing 4×ULight™-labeled JAK1 and 560 μL 4×ATP solution
and mixed (prepared before use). The assays used an ULight-labeled peptide substrate and a
Europium-W1024-labeled antiphosphotyrosine antibody. The VEGFR-2 was purchased from
Carna Biosciences, Inc. (New York, USA). The 384-well plates were obtained from PerkinElmer.
5 μL 2×VEGFR-2 kinase solution (0.5 nM)
was added to 384-well plates homogeneous mixing and pre-reaction at room temperature for 30 min. Next, 2.5 μL 4×Ultra ULightTM-JAK-1(Tyr1023) Peptide (200 nM)/ATP (40 μM) was added to the corresponding wells of a 384-well plate. Negative control: 2.5 μL/well 4×substrate/ATP mixture and 7.5 μL 1×kinase assay buffer in 384-well plate well. Positive control:
μL/well 2×VEGFR-2 kinase solution was added to the 384-well plate, The final concentration of DMSO in the mixing system was 4%. After incubation at room temperature and dark for 60 min, 5 μL 4×stop solution was added to corresponding wells to react for 5 min and then 5 μL 4×detection mix was added to the corresponding wells of a 384-well plate. The mixture was centrifugally mixed and stayed for 60 min at room temperature for color development. The plate was read using a Envision plate reader. The inhibition rate (%) = (positive well reading-compound well reading)/(positive well reading-negative well reading)×100. The corresponding IC50 values were calculated using GraphPad Prism 5.0.

Panc-1 cells = assay: Antiproliferative MTT assay; details: Homo sapiens, PANC-1, read-out: Antiproliferative activity IC50 ± SEM, Panc-1
Description: as §8
Assay for antiproliferative effect

HT-29 cells = assay: Antiproliferative MTT assay; details: Homo sapiens, HT-29, read-out: Antiproliferative activity IC50 ± SEM, HT-29
Description: as §8
Assay for antiproliferative effect

A-549 cells = assay: Antiproliferative MTT assay; details: Homo sapiens, A549, read-out: Antiproliferative activity IC50 ± SEM, A-549
Description: as §8
Assay for antiproliferative effect

EGFR = EGFR (Homo sapiens, UniProt P00533); assay: EGFR-TK inhibitory assay
Experimental: Baculoviral expression vectors including pBlueBacHis2B and pFASTBacHTc were used
5ʹ upstream to the EGFR sequence comprised a sequence that encoded (His)6. Sf-9 cells were infected for 72h for protein expression. The pellets of Sf-9 cells were solubilized in a buffer containing sodium vanadate (100 μM), aprotinin (10 μg/mL), triton (1%), HEPES buffer(50mM), ammonium molybdate (10 μM), benzamidine HCl (16 μg/mL), NaCl (10 mM),leupeptin (10 μg/mL) and pepstatin (10 μg/mL) at 0°C for 20 min at pH 7.4, followed by centrifugation for 20 min. To eliminate the nonspecifically bound material, a Ni-NTA super flow packed column was used to pass through and wash the crude extract supernatant first with 10mM and then with 100 mM imidazole. Histidine-linked proteins were first eluted with 250 and then with 500 mM imidazole subsequent to dialysis against NaCl (50 mM), HEPES (20 mM), glycerol (10%) and 1 μg/mL each of aprotinin, leupeptin and pepstatin for 120 min. The purification was performed either at 4 °C or on ice. To record autophosphorylation level, EGFR kinase assay was carried out on the basis of DELFIA/Time-Resolved Fluorometry. The compounds were first
dissolved in DMSO absolute, subsequent to dilution to appropriate concentration using HEPES
(25 mM) at pH 7.4. Each compound (10 μL) was incubated with recombinant enzyme (10 μL, 5
ng for EGFR, 1:80 dilution in 100 mM HEPES) for 10 min at 25 °C, subsequent to the addition of
5X buffer (10 μL, containing 2 mM MnCl2, 100 μM Na3VO4, 20 mM HEPES and 1 mM DTT)
and ATP-MgCl2 (20 μL, containing 0.1 mM ATP and 50 mM MgCl2) and incubation for 1h. The
negative and positive controls were included in each plate by the incubation of enzyme either with
or without ATP-MgCl2. The liquid was removed after incubation and the plates were washed
thrice using a wash buffer. The Europium-tagged antiphosphotyrosine antibody (75 μL, 400 ng)
as §9, §10, §11
calculated. The majority of signals detected by antiphosphotyrosine antibody were from EGFR because the enzyme preparation contained low impurities.

S. aureus = assay: MIC by twofold serial dilution; type: cell-based, Staphylococcus aureus (ATCC 12600); details: Gram-positive; for MIC: Staphylococcus aureus, read-out: Minimum inhibitory concentration (MIC), S. aureus
Experimental: (§1) The antibacterial efficacy of compounds 11b, 11e, and 12b was evaluated against Gram-positive bacteria (S. aureus and B. subtilis) and Gram-negative bacteria (E. coli and P. aeruginosa). Table 5 presents the MICs (nM) of these compounds against the evaluated bacteria, utilizing ciprofloxacin as the reference drug, determined through a twofold serial dilution approach on a 96-well microtiter plate ([Frejat F. O. et al., 2022]).
as §1, with “The” for “Table 5 presents the”, “the tested” for “these”, “bacteria were” for “bacteria, utilizing ciprofloxacin as the reference drug,”, “2022]). See Appendix A for more details.” for “2022]).”
(§2) 4.2. Antimicrobial activity
(§3) 4.2.1. Organisms and culture conditions […]
(§4) 4.2.2. Minimum inhibitory concentration assay
(§5) In 96-well microtiter plates and […] of fresh bacterial culture of a single McFarland unit overnight, a double serial dilution of each compound […] in sterile standard saline were prepared to every single source well. Ciprofloxacin antibiotic (5 mg / mL-1) and normal saline were included as standard reference in each assay. The plates were incubated at 37 0C overnight.
(§6) As an indicator of bacterial growth, […] of p -iodonitrotetrazolium violet (INT) was added to each well and incubated at 37 0C for 30 min. MIC values are recorded as the lowest concentration […]
(§7) tetrazolidium salt acts as an electron accepter and is reduced to a red colored formazan product by biological activity organisms. Where bacterial growth was inhibited, the solution in the well remained clear after incubation with INT. […]

E. coli = assay: MIC by twofold serial dilution; type: cell-based, Escherichia coli (ATCC 11775); details: Gram-negative; for MIC: Escherichia coli, read-out: Minimum inhibitory concentration (MIC), E. coli
Experimental: as §1
as §1, with “The” for “Table 5 presents the”, “the tested” for “these”, “bacteria were” for “bacteria, utilizing ciprofloxacin as the reference drug,”, “2022]). See Appendix A for more details.” for “2022]).”
as §2, §3, §4, §5, §6, §7

P. aeruginosa = assay: MIC by twofold serial dilution; type: cell-based, Pseudomonas aeuroginosa (ATCC 10145); details: Gram-negative; for MIC: Pseudomonas aeruginosa, read-out: Minimum inhibitory concentration (MIC), P. aeruginosa
Experimental: as §1
as §1, with “The” for “Table 5 presents the”, “the tested” for “these”, “bacteria were” for “bacteria, utilizing ciprofloxacin as the reference drug,”, “2022]). See Appendix A for more details.” for “2022]).”
as §2, §3, §4, §5, §6, §7

B. subtilis = assay: MIC by twofold serial dilution; type: cell-based, Bacillus subtilis (ATCC 6051); details: for MIC: Bacillus subtilis, read-out: Minimum inhibitory concentration (MIC), B. subtilis
Experimental: as §1
as §1, with “The” for “Table 5 presents the”, “the tested” for “these”, “bacteria were” for “bacteria, utilizing ciprofloxacin as the reference drug,”, “2022]). See Appendix A for more details.” for “2022]).”
as §2, §3, §4, §5, §6, §7

Chain of EGFR (P00533 669-1210): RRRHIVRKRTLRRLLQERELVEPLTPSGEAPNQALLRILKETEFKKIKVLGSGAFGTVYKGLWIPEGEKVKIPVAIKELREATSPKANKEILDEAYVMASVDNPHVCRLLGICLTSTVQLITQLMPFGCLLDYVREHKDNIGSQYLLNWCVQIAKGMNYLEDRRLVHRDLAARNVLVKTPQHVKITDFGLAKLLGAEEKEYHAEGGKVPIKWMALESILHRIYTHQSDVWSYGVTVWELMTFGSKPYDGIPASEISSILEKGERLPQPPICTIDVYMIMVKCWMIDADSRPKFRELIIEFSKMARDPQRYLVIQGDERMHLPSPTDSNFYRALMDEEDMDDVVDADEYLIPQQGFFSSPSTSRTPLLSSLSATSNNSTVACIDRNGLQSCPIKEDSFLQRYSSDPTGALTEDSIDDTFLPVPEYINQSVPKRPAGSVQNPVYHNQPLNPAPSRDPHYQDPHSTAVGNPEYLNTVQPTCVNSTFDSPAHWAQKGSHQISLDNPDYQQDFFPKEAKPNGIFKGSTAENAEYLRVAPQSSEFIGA
Chain of VEGFR-2 (P35968 20-1356): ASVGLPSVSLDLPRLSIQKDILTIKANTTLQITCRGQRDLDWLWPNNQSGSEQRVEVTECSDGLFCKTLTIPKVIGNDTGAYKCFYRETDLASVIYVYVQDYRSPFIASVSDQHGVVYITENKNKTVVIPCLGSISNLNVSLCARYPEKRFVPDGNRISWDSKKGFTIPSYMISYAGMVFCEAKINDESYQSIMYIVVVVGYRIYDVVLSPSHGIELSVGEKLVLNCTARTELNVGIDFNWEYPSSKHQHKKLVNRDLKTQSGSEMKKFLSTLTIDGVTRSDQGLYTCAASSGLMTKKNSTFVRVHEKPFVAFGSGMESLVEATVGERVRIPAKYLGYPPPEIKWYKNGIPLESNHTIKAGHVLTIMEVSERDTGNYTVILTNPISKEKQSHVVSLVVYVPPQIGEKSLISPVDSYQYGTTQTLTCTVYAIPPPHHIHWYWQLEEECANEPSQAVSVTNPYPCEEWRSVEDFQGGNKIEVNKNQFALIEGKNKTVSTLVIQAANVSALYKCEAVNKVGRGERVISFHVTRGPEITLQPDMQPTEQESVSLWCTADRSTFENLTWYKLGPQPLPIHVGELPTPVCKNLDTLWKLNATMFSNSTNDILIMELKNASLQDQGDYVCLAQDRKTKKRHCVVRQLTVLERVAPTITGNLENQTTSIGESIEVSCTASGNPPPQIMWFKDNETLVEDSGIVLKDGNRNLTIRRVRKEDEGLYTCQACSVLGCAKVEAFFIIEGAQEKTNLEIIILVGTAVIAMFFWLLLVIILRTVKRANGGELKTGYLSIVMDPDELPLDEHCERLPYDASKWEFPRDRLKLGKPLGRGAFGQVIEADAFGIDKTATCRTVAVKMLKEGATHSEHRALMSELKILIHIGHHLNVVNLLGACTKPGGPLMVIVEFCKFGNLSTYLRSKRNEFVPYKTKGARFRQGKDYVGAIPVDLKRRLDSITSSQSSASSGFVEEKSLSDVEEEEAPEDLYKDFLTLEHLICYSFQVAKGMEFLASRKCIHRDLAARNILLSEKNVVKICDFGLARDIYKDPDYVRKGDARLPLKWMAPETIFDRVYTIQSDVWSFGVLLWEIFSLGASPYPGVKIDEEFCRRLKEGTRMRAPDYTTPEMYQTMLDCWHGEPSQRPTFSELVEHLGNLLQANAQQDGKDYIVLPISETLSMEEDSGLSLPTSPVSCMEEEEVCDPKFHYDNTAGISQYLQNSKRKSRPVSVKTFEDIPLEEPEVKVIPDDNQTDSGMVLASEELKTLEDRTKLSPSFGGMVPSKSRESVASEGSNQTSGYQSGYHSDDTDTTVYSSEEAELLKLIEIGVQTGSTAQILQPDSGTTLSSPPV

Q: Which results are given for `Cc1nc(SCC(=O)c2cc3cc(Br)ccc3oc2=O)sc1C(=O)/C=C/c1ccccc1` [Compound 11d, (E)-6-Bromo-3-(2-((5-cinnamoyl-4-methylthiazol-2-yl)thio)acetyl)-2H-chromen-2-one]?
A: viability at 96 h, 50 µM (in vitro): 95%; remaining activity at 1 µM (E. coli DNA gyrase): 54%; Fold less potent than compound 11f (GI50) [1]: 1.1 fold; GI50 [1]: 30 nM; IC50 (MCF-7 cells): 31 ± 1 nM; IC50 (VEGFR-2): 3600 ± 20 nM; IC50 (Panc-1 cells): 30 ± 1 nM; IC50 (HT-29 cells): 30 ± 1 nM; IC50 (A-549 cells): 28 ± 1 nM; IC50 (EGFR): 76 ± 3 nM

Q: With `COc1ccc(/C=C/C(=O)c2sc(SCC(=O)c3cc4cc(Br)ccc4o3)nc2C)cc1` [Compound 12f, (E)-1-(2-((2-(5-Bromobenzofuran-2-yl)-2-oxoethyl)thio)-4-methylthiazol-5-yl)-3-(4-methoxyphenyl)prop-2-en-1-one] as the molecule, how does the viability at 96 h, 50 µM (in vitro) read?
A: The viability at 96 h, 50 µM was 92%.

Q: And the “Fold less effective than compound 11b (DNA gyrase IC50)” value (E. coli DNA gyrase)?
A: The value was “approximately 1.2 fold”.

Q: What about the IC50 (E. coli DNA gyrase) of the same molecule?
A: The IC50 was 208 ± 15 nM.

Q: What about the “Fold less potent than compound 11f (GI50)” value [1] of the same molecule?
A: Its value is 2.1 fold.

Q: What about the GI50 [1] of the same molecule?
A: Its GI50 is 57 nM.

Q: What about the IC50 (MCF-7 cells) of the same molecule?
A: Its IC50 is 59 ± 4 nM.

Q: What about the IC50 (Panc-1 cells) of the same molecule?
A: Its IC50 is 56 ± 4 nM.

Q: What about the IC50 (HT-29 cells) of the same molecule?
A: The IC50 was 56 ± 4 nM.

Q: What about the IC50 (A-549 cells) of the same molecule?
A: Its IC50 is 55 ± 4 nM.

Q: For `Cc1nc(SCC(=O)c2cc3ccccc3oc2=O)sc1C(=O)/C=C/c1ccccc1` [Compound 11a, (E)-3-(2-((5-Cinnamoyl-4-methylthiazol-2-yl)thio)acetyl)-2H-chromen-2-one], which viability at 96 h, 50 µM (in vitro) is on record?
A: Its viability at 96 h, 50 µM is 91%.

Q: What about the remaining activity at 1 µM (E. coli DNA gyrase) of the same molecule?
A: Its remaining activity at 1 µM is 72%.

Q: And the GI50 [1]?
A: Its GI50 is 44 nM.

Q: And the IC50 (MCF-7 cells)?
A: The IC50 was 48 ± 3 nM.

Q: And the IC50 (VEGFR-2)?
A: The IC50 was 5200 ± 30 nM.

Q: And the IC50 (Panc-1 cells)?
A: Its IC50 is 44 ± 3 nM.

Q: And the IC50 (HT-29 cells)?
A: Its IC50 is 44 ± 3 nM.

Q: And the IC50 (A-549 cells)?
A: The IC50 was 40 ± 2 nM.

Q: What about the IC50 (EGFR) of the same molecule?
A: The IC50 was 93 ± 4 nM.

Q: Which viability at 96 h, 50 µM (in vitro) does the source give for `COc1ccc(/C=C/C(=O)c2sc(SCC(=O)c3cc4ccccc4o3)nc2C)cc1` [Compound 12c, (E)-1-(2-((2-(Benzofuran-2-yl)-2-oxoethyl)thio)-4-methylthiazol-5-yl)-3-(4-methoxyphenyl)prop-2-en-1-one] here?
A: The viability at 96 h, 50 µM was 91%.

Q: And the remaining activity at 1 µM (E. coli DNA gyrase)?
A: The remaining activity at 1 µM was 59%.

Q: What about the GI50 [1] of the same molecule?
A: Its GI50 is 36 nM.

Q: What about the IC50 (MCF-7 cells) of the same molecule?
A: Its IC50 is 39 ± 2 nM.

Q: And the IC50 (VEGFR-2)?
A: Its IC50 is 4050 ± 20 nM.

Q: What about the IC50 (Panc-1 cells) of the same molecule?
A: Its IC50 is 36 ± 2 nM.

Q: What about the IC50 (HT-29 cells) of the same molecule?
A: The IC50 was 37 ± 2 nM.

Q: And the IC50 (A-549 cells)?
A: The IC50 was 33 ± 2 nM.

Q: What about the IC50 (EGFR) of the same molecule?
A: The IC50 was 83 ± 3 nM.

Q: Which viability at 96 h, 50 µM (in vitro) does the source give for `Cc1nc(SCC(=O)c2cc3ccccc3oc2=O)sc1C(=O)/C=C/c1ccc(Cl)cc1` [Compound 11b, (E)-3-(2-((5-(3-(4-Chlorophenyl)acryloyl)-4-methylthiazol-2-yl)thio)acetyl)-2H-chromen-2-one] here?
A: The viability at 96 h, 50 µM was 92%.

Q: What about the “Minimum inhibitory concentration (MIC), S. aureus” value (S. aureus) of the same molecule?
A: Its value is 0.023 ± 0.001 µM (≈ 0.0111 µg/mL).

Q: What about the MIC (S. aureus) of the same molecule?
A: Its MIC is 0.023 µM (≈ 0.0111 µg/mL).

Q: What about the “Fold less effective than novobiocin (DNA gyrase IC50)” value (E. coli DNA gyrase) of the same molecule?
A: The value was 1.1 fold.

Q: What about the IC50 (E. coli DNA gyrase) of the same molecule?
A: Its IC50 is 182 ± 13 nM.

Q: What about the GI50 [1] of the same molecule?
A: The GI50 was 71 nM.

Q: And the MIC (E. coli)?
A: The MIC was 0.042 µM (≈ 0.0202 µg/mL).

Q: And the “Minimum inhibitory concentration (MIC), E. coli” value (E. coli)?
A: Its value is 0.042 ± 0.003 µM (≈ 0.0202 µg/mL).

Q: What about the IC50 (MCF-7 cells) of the same molecule?
A: The IC50 was 74 ± 6 nM.

Q: What about the IC50 (Panc-1 cells) of the same molecule?
A: Its IC50 is 70 ± 6 nM.

Q: What about the “Minimum inhibitory concentration (MIC), P. aeruginosa” value (P. aeruginosa) of the same molecule?
A: Its value is 0.045 ± 0.003 µM (≈ 0.0217 µg/mL).

Q: And the MIC (P. aeruginosa)?
A: Its MIC is 0.045 µM (≈ 0.0217 µg/mL).

Q: And the “Fold less efficient than ciprofloxacin (MIC), B. subtilis” value (B. subtilis)?
A: Its value is 1.8 fold.

Q: What about the MIC (B. subtilis; Gram-positive) of the same molecule?
A: Its MIC is 0.018 µM (≈ 0.00868 µg/mL).

Q: What about the “Minimum inhibitory concentration (MIC), B. subtilis” value (B. subtilis; Gram-positive) of the same molecule?
A: The value was 0.018 ± 0.001 µM (≈ 0.00868 µg/mL).

Q: What about the IC50 (HT-29 cells) of the same molecule?
A: The IC50 was 72 ± 6 nM.

Q: What about the IC50 (A-549 cells) of the same molecule?
A: The IC50 was 69 ± 6 nM.

Q: Which viability at 96 h, 50 µM (in vitro) does the source give for `Cc1nc(SCC(=O)c2cc3ccccc3o2)sc1C(=O)/C=C/c1ccc(Cl)cc1` [Compound 12b, (E)-1-(2-((2-(Benzofuran-2-yl)-2-oxoethyl)thio)-4-methylthiazol-5-yl)-3-(4-chlorophenyl)prop-2-en-1-one] here?
A: The viability at 96 h, 50 µM was 90%.

Q: What about the MIC (S. aureus) of the same molecule?
A: The MIC was 0.034 ± 0.002 µM (≈ 0.0154 µg/mL).

Q: What about the IC50 (E. coli DNA gyrase) of the same molecule?
A: The IC50 was 197 ± 12 nM.

Q: And the GI50 [1]?
A: The GI50 was 65 nM.

Q: What about the MIC (E. coli) of the same molecule?
A: The MIC was 0.062 ± 0.004 µM (≈ 0.0281 µg/mL).

Q: And the IC50 (MCF-7 cells)?
A: Its IC50 is 68 ± 5 nM.

Q: What about the IC50 (Panc-1 cells) of the same molecule?
A: Its IC50 is 64 ± 5 nM.

Q: What about the MIC (P. aeruginosa) of the same molecule?
A: The MIC was 0.064 ± 0.004 µM (≈ 0.0291 µg/mL).

Q: What about the MIC (B. subtilis; Gram-positive) of the same molecule?
A: Its MIC is 0.029 ± 0.001 µM (≈ 0.0132 µg/mL).

Q: What about the IC50 (HT-29 cells) of the same molecule?
A: The IC50 was 65 ± 5 nM.

Q: What about the IC50 (A-549 cells) of the same molecule?
A: The IC50 was 61 ± 5 nM.
